Results: patent publication US20090018021A1, “Methyl jasmonate decreases fruit detachment force of grapes” (Regents of the University of California, priority 2006, published 2009)
Several values for one entry are separate records, joined by “and”; a condition that tells them apart may be missing. Equal values may be shown once.

How the values were obtained:
[1] = tested on: Thompson Seedless grapevines; experiment: Fruit detachment force (FDF), Thompson Seedless experiment; type: in vivo, grape; conditions: for FDF: ten days after treatment
Procedure: (§1) An experiment was conducted in a 40-year-old Thompson Seedless vineyard at the Kearney Agricultural Center in Parlier, California. The site was typical of conventional raisin vineyards, with head-trained, cane-pruned vines on a two-wire T-shaped trellis with a 0.6 m cross arm. The soil was a deep Hanford fine sandy loam.
(§2) The vineyard was divided into plots consisting of vine sections (within-row spaces between two adjacent vine trunks) of uniform appearance and crop load. Each plot was surrounded by guard vines within and between rows. Treatments consisted of 26 different solutions made up of various potential abscission agents (Table 1). Because the concentrations varied widely between agents, each solution was considered a different treatment, and a randomized complete block design was used. All treatments, except for coronatine, were replicated four times. Due to a lack of material, coronatine was only applied to two plots; therefore, data from that treatment were not subjected to statistical analysis though observations were made.
(§3) Composite berry samples were collected weekly to monitor soluble solids accumulation by the fruits. Samples consisted of about 100 berries collected from the top, middle and bottom of about 33 randomly selected clusters. Berries were homogenized in a blender, their juice filtered, and soluble solids measured with a temperature compensating digital refractometer (Palette 101, Atago, Farmingdale, N.Y.). Once the fruits amassed sufficient soluble solids for raisin making (>19 Brix), abscission agents were dissolved or dispersed in water with adjuvant added (0.1%, v/v, Latron B-1956™, Britz, Parlier, Calif.) except MeJA solutions which contained 0.2% adjuvant. Control solutions contained the adjuvant only (0.2% v/v). Immediately after their preparation, solutions were applied to the vines of each plot with a gasoline-powered back-pack sprayer (Solo, Newport News, R.I.) until runoff. Vines within harvest pruned (HP) plots were not treated with any solutions, but their canes were severed on the same day that solutions were applied.
(§4) The soil surface within each plot was covered with ground cloth to collect any berries that might fall from the canopy. […] In those plots and in the control and HP plots, all abscised berries were collected from the ground cloth into paper bags and placed in a forced air oven (60 C) until they reached a constant weight. Clusters of grapes on vines from all the plots were carefully harvested and brought into a laboratory where fruit detachment force (FDF) measurements were made. Any grapes that detached from the vines at harvest were considered to be retained by the vine until harvest. These berries were collected into paper bags and placed in a forced air oven to dry.
(§5) Three representative clusters were selected from all the clusters of each plot and ten rachis sections from the top, middle, and bottom of the three clusters were removed by cutting the rachis with shears. A berry from each section was placed in a jig attached to a force gauge (DPS-11, Imada Inc., Northbrook, Ill.). The rachis was pulled parallel to the fruit axis until it separated from the fruit. The force required to detach each berry from the rachis in grams-force was recorded as the fruit detachment force. The condition of each detached berry was noted, and the berries were placed in paper bags along with all the other berries that were picked from that plot. These berries were also placed in the forced air oven and dried to a constant weight. The proportion of berries that abscised from the vine was calculated on a dry weight basis by dividing the dry weight of the abscised berries in each plot by the combined weight of the retained and abscised berries in that plot. Finally, canopy damage in each plot was inspected visually and assigned a rating of 0 (no obvious foliar damage), 1 (appearance of slight foliar damage), 2 (appearance of moderate foliar damage), or 3 (appearance of severe foliar damage).

[2] = tested on: Thompson Seedless grapevines; experiment: Visual canopy damage rating, Thompson Seedless experiment; type: in vivo, grape; conditions: ten days after treatment
Description: as §2
Composite berry samples were collected weekly to monitor soluble solids accumulation by the fruits. Samples consisted of about 100 berries collected from the top, middle and bottom of about 33 randomly selected clusters. […] Control solutions contained the adjuvant only (0.2% v/v). Immediately after their preparation, solutions were applied to the vines of each plot with a gasoline-powered back-pack sprayer (Solo, Newport News, R.I.) until runoff. Vines within harvest pruned (HP) plots were not treated with any solutions, but their canes were severed on the same day that solutions were applied.
as §5

citrus trees = conditions: cited from earlier work
[3] = tested on: Thompson Seedless grapevines; experiment: Fruit drop (berry abscission) from treated vines, Thompson Seedless experiment; type: in vivo, grape; conditions: for Percent fruit drop (dry wt/dry wt): 10 days after treatment; for Berry abscission observed in plots: ten days after treatment, all 26 solutions compared
Procedure: as §1, §2, §3, §4, §5

Crimson Seedless grapes = experiment: Abscission and fruit detachment force, Crimson Seedless experiment; type: in vivo, grape
Procedure: An experiment was conducted in a fourteen-year-old vineyard of own-rooted Crimson Seedless grapes on an open-gable trellis. Individual clusters of grapes were sprayed to runoff with one of four solutions containing 0, 1125, 2250, or 4500 ppm MeJA and an adjuvant (0.2% v/v, Latron-B 1956). On Day 0, treatments were applied in a randomized, complete block design with clusters as observational units, and vines as blocks. Each spray treatment was applied to 4 replicate clusters. During treatment, clusters were surrounded with plastic shields to protect other clusters from overspray and runoff. The day after treatment, each cluster was enclosed in a plastic mesh bag to collect any berries that might abscise. Clusters were harvested 14 DAT. Ten rachis sections were collected from each cluster and FDF was measured as described previously. The condition of the detached berries was noted, and the berries from each cluster were then separately weighed and homogenized in a blender. Juices were filtered and soluble solids, pH, and titratable acidity of the filtered juices were determined using standard methods.
All data were subjected to analysis of variance using the general linear models procedure (PROC GLM) of SAS statistical software (SAS Inst., Cary, N.C.). Duncan's New Multiple Range Test was used to separate treatment means. […]

[4] = tested on: Cabernet Sauvignon grapevines; experiment: Fruit detachment force and fruit drop, Cabernet Sauvignon; type: in vivo, grape; conditions: 4500 ppm, 14 DAT
Procedure: (§6) An experiment was conducted in a nine-year-old vineyard of own-rooted Cabernet Sauvignon and Merlot grapevines on a vertical two-wire […]. Whole vines were sprayed to runoff on Day 0 with solutions containing 0 or 4500 ppm MeJA and an adjuvant (Latron B-1956; 0.2% v/v) in a completely randomized design replicated four times. On 14 DAT, four representative clusters were collected from each of four vines and ten rachis sections were prepared from each cluster. Fruit detachment force was measured from berries attached to each section, as described previously. Condition of the detached berries was noted, and all the berries from each cluster were counted, weighed, and homogenized in a blender. The juice from each sample was filtered and soluble solids, pH, and titratable acidity of the filtered juices were determined using standard methods. All data were subjected to analysis of variance using the general linear models procedure (PROC GLM) of SAS statistical software (SAS Inst., Cary, N.C.). Duncan's New Multiple Range Test was used to separate treatment means.

Merlot grapevines = experiment: Fruit detachment force and fruit drop, Merlot; type: in vivo, grape; conditions: 4500 ppm, 14 DAT
Procedure: as §6

[5] = tested on: Thompson Seedless grapevines; experiment: Bud break and shoot growth six months after treatment, Thompson Seedless experiment; type: in vivo, grape; conditions: 2000 ppm, evaluated six months later
Procedure: Each plot was inspected again six months later when bud break and shoot growth were evaluated. To evaluate bud break, plots received one of the following scores; 0=shoots emerged from 0-20% of nodes; 1=shoots emerged from 20-40% of nodes, 2=shoots emerged from 40-60% of nodes, 3=shoots emerged from 60-80% of nodes, or 4=shoots emerged from 80-100% of nodes. Shoot growth in each plot was also evaluated on a five-point scale, based on the proportion of shoots that had progressed to the five-leaf stage (Eichorn-Lorenz stage 12; Eichorn and Lorenz, Phaenologische Entwicklungsstadien der Rebe. Nachrichtenbl. Deut. Pflanzenschutzd. (Braunschweig) 29:119-120 (1977)).

SMILES: NC1(C(=O)O)CC1 [VBC-30069]
- FDF ([1]; 50 ppm): 0.261 cd kg
- FDF ([1]; 150 ppm): 0.266 abcd kg

SMILES: Cc1n[nH]c(Cl)c1[N+](=O)[O-] [CMNP, 5-chloro-3-methyl-4-nitro-1H-pyrazole]
- FDF ([1]; 20 ppm): 0.244 cd kg
- FDF ([1]; 200 ppm): 0.156 fg·kg
- FDF ([1]; 1000 ppm): 0.161 fg·kg
- FDF ([1]; 2000 ppm): 0.182 ef kg
- Canopy damage (0-3; none-severe) ([2]; 20 ppm): 1.25 cde
- Canopy damage (0-3; none-severe) ([2]; 200 ppm): 1.25 bcd
- Canopy damage (0-3; none-severe) ([2]; 1000 ppm): 1.75 bc
- Canopy damage (0-3; none-severe) ([2]; 2000 ppm): 2.75 a

SMILES: CC/C=C\CC1C(=O)CCC1CC(=O)OC (stereo not drawn) [MeJA, methyl jasmonate]
- Fruit on treated trees dropped (citrus trees; citrus trees, 2250-4500 ppm, within 10 DAT (Hartmond et al. 2000)): about 20%
- FDF less than fruit from non-treated trees (citrus trees; citrus trees, solutions of 2250-4500 ppm (Hartmond et al. 2000)): 75-80%
- FDF ([1]; 45 ppm): 0.169 fg·kg
- FDF ([1]; 450 ppm): 0.124 gh kg
- FDF ([1]; 2250 ppm): 0.079 hi kg
- FDF ([1]; 4500 ppm): 0.052 i kg
- Reduction of FDF compared with cane severance ([1]; any concentration ≧450 ppm, 10 DAT): reduced FDF at least as effectively as cane severance
- Reduction of FDF compared to non-treated vines ([1]; lowest concentration tested, 10 DAT): reduced FDF by half
- Percent fruit drop (dry wt/dry wt) ([3]; 45 ppm): 0.26 c percent
- Percent fruit drop (dry wt/dry wt) ([3]; 450 ppm): 6.37 c percent
- Percent fruit drop (dry wt/dry wt) ([3]; 4500 ppm): 50% and 50.71 a percent
- Berry abscission observed in plots [3]: berry abscission was only observed in plots treated with MeJA or coronatine
- Abscised berries observed ([3]; within 2 days after treatment, ≧450 ppm (2 mM)): abscised berries were observed
- FDF of berries retained after harvest versus concentration applied (Crimson Seedless grapes; 14 DAT, 0-4500 ppm): FDF decreased as a linear function of the concentration of MeJA applied
- Abscission of grapes from clusters (Crimson Seedless grapes; within 14 DAT, clusters sprayed with 1125, 2250 or 4500 ppm): did not abscise from any clusters
- Fruit drop (appeared, not measured) [4]: less than 10%
- Reduction of FDF compared to non-treated vines [4]: 66%
- Fruit drop (appeared, not measured) (Merlot grapevines): less than 10%
- Reduction of FDF compared to non-treated vines (Merlot grapevines): 75%

SMILES: CC1(C)OC[C@@H]2O[C@@]3(C(=O)O)OC(C)(C)O[C@H]3[C@@H]2O1 [Dikegulac]
- Leaf loss expected (citrus trees; citrus, at certain times of the season (Pozo et al, 2004)): (Pozo et al, 2004). Expect 15-20%
- FDF ([1]; 20 ppm): 0.291 abc kg
- FDF ([1]; 200 ppm): 0.27 ab kg
- FDF ([1]; 1000 ppm): 0.288 ab kg
- FDF ([1]; 2000 ppm): 0.176 efg kg
- Canopy damage (0-3; none-severe) ([2]; 20 ppm): 1.00 cd
- Canopy damage (0-3; none-severe) ([2]; 200 ppm): 1.25 bcd
- Canopy damage (0-3; none-severe) ([2]; 1000 ppm): 0.5
- Canopy damage (0-3; none-severe) ([2]; 2000 ppm): 1.50 bcd
- Appearance of shoots [5]: cupped leaves and short internodes

SMILES: CC[C@H]1C=C(C(=O)N[C@@]2(C(=O)O)C[C@@H]2CC)[C@H]2CCC(=O)[C@H]2C1 [Coronatine]
- Defoliation expected (citrus trees; citrus (Burns et al., 2003)): chlorosis. Expect ~10% defoliation.
- Fruit drop (observation, not statistically analysed) ([3]; 200 ppm, two plots only, 10 DAT): fruit drop appeared similar to that of vines treated with 2250 ppm MeJA
- Berry abscission observed in plots [3]: berry abscission was only observed in plots treated with MeJA or coronatine
